Results as given in US6380218B1, “Nicotinamide derivatives” (Pfizer Inc, priority 1997, dated 2002).

Row | SMILES | melting point [°C]
1 | O=C(NCc1ccc(Cl)o1)c1cccnc1Oc1cncc(Cl)c1 [Example 57, N-(5-Chloro-furan-2-ylmethyl)-2-(5-chloro-pyridin-3-yloxy)-nicotinamide] | 111 to 113
2 | O=C(NCc1ccccc1Cl)c1cccnc1Oc1cccnc1 [Example 12, N-(2-Chloro-benzyl)-2-(pyridin-3-yloxy)-nicotinamide] | 123 to 125
3 | O=C(NCc1ccccc1Cl)c1cccnc1OCc1ccc(F)cc1 [Example 70, N-(2-Chloro-benzyl)-2-(4-fluoro-benzyloxy)-nicotinamide] | 64 to 66
4 | Cc1ccc(C(C)NC(=O)c2cccnc2Oc2cncc(Cl)c2)s1 (centres unmarked) [Example 50, 2-(5-Chloro-pyridin-3-yloxy)-N-[1-(5-methyl-thiophen-2-yl)-ethyl]-nicotinamide] | 75 to 77
5 | O=C(NCc1cccs1)c1cccnc1Oc1ccc(F)cc1 [Example 1, 2-(4-Fluoro-phenoxy)-N-thiophen-2-ylmethyl-nicotinamide] | 89 to 91
6 | CC(NC(=O)c1cccnc1Oc1ccc(F)cc1)c1ccc(Br)cc1 (centres unmarked) [Example 82, N-[1-(4-Bromo-phenyl)-ethyl]-2-(4-fluoro-phenoxy)-nicotinamide] | 120 to 122
7 | Cc1ccc(CNC(=O)c2cccnc2Oc2cccnc2)s1 [Example 18, N-(5-Methyl-thiophen-2-ylmethyl)-2-(pyridin-3-yloxy)-nicotinamide] | 111 to 113
8 | CC(C)(O)c1cc(Cl)c(CNC(=O)c2cccnc2Oc2cncc(Cl)c2)s1 [Example 60, N-[3-Chloro-5-(1-hydroxy-1-methyl-ethyl)-thiophen-2-ylmethyl]-2-(5-chloro-pyridin-3-yloxy)-nicotinamide] | 72 to 74
9 | CCOC(=O)c1cc2cc(CNC(=O)c3cccnc3Oc3ccc(F)cc3)ccc2[nH]1 [Example 75, 5-({[2-(4-Fluoro-phenoxy)-pyridine-3-carbonyl]-amino}-methyl)-1H-indole-2-carboxylic acid ethyl ester] | 185 to 187
10 | CC(C)(O)c1sc(CNC(=O)c2cccnc2Oc2ccc(F)cc2)cc1Cl [Example 81, N-[4-Chloro-5-(1-hydroxy-1-methyl-ethyl]-thiophen-2-ylmethyl]-2-(4-fluoro-phenoxy)-nicotinamide] | 115 to 117
11 | O=C(Nc1ccc2[nH]c(=O)oc2c1)c1cccnc1Oc1ccc(F)cc1 [Example 74, 2-(4-Fluoro-phenoxy)-N-(2-oxo-2,3-dihydro-benzooxazol-6-yl)-nicotinamide] | 289 to 291
12 | O=C(NCc1cc2ccccc2s1)c1cccnc1Oc1ccc(F)cc1 [Example 65, N-Benzo[b]thiophen-2-ylmethyl-2-(4-fluoro-phenoxy)-nicotinamide] | 109 to 111
13 | O=C(NCc1ccc(OC(F)F)cc1)c1cccnc1Oc1cccnc1 [Example 27, N-(4-Difluoromethoxy-benzyl)-2-(pyridin-3-yloxy)-nicotinamide] | 91 to 93
14 | O=C(NCc1ccc(C(F)(F)F)s1)c1cccnc1Oc1cccnc1 [Example 30, 2-(Pyridin-3-yloxy)-N-(5-trifluoromethyl-thiophen-2-ylmethyl)-nicotinamide] | 122 to 124
15 | O=C(NCc1ccco1)c1cccnc1Oc1cccnc1 [Example 15, N-Furan-2-ylmethyl-2-(pyridin-3-yloxy)-nicotinamide] | 84 to 86
16 | O=C(NCc1ccc(Cl)o1)c1cccnc1Oc1ccc(F)cc1 [Example 63, N-(5-Chloro-furan-2-ylmethyl)-2-(4-fluoro-phenoxy)-nicotinamide] | 116 to 118
17 | O=C(NCc1cc2ccccc2s1)c1cccnc1Oc1cncc(Cl)c1 [Example 56, N-Benzo[b]thiophen-2-ylmethyl-2-(5-chloro-pyridin-3-yloxy)-nicotinamide] | 160 to 162
18 | O=C(NCc1scc(Cl)c1Cl)c1cccnc1Oc1ccc(F)cc1 [Example 68, N-(3,4-Dichloro-thiophen-2-ylmethyl)-2-(4-fluoro-phenoxy)-nicotinamide] | 132 to 134

Other lines, results leading:

Row | melting point [°C] | SMILES
19 | 105 to 107 | CC(=O)c1cccc(Oc2ncccc2C(=O)NCc2ccc(C(C)O)cc2)c1 (centres unmarked) [Example 223, 2-(3-Acetyl-phenoxy)-N-[4-(1-hydroxy-ethyl)-benzyl]-nicotinamide]
20 | 118 to 119 | O=C(NCc1ccccn1)c1cccnc1Oc1cccnc1 [Example 181, N-Pyridin-2-ylmethyl-2-(pyridin-3-yloxy)-nicotinamide]
21 | 126 to 128 | O=C(NCc1ccccc1Cl)c1cccnc1Oc1cccc(Cl)c1 [Example 189, N-(2-Chloro-benzyl)-2-(3-chloro-phenoxy)-nicotinamide]
22 | 92 to 94 | CC(C)(O)c1ccc(CNC(=O)c2cccnc2Oc2ccc(F)cc2F)cc1 [Example 230, 2-(2,4-Difluoro-phenoxy)-N-[4-(1-hydroxy-1-methyl-ethyl)-benzyl]-nicotinamide]
23 | 140 to 142 | CC(=O)c1cccc(Oc2ncccc2C(=O)NCc2ccccc2Cl)c1 [Example 222, 2-(3-Acetyl-phenoxy)-N-(2-chloro-benzyl)-nicotinamide]
24 | 195 to 197 | CC(C)(O)c1ccc(CNC(=O)c2cccnc2Oc2ccc3ncsc3c2)cc1 [Example 301, 2-(Benzothiazol-6-yloxy)-N-(4-(1-hydroxy-1-methyl-ethyl)-benzyl)-nicotinamide]
25 | 105.5 to 106.5 | O=C(COc1ccccc1)c1cccnc1Oc1ccc(F)cc1 [Example 265, 1-[2-(4-Fluoro-phenoxy)-pyridin-3-yl]-2-phenoxy-ethanone]
26 | 129 to 130 | CC(C)(O)C1CCC(CNC(=O)c2cccnc2Oc2cccc(C#N)c2)CC1 (centres unmarked) [Example 214, 2-(3-Cyano-phenoxy)-N-[4-(1-hydroxy-1-methyl-ethyl)-cyclohexylmethyl]-nicotinamide]
27 | 179 to 180 | N#Cc1cccc(Oc2ncccc2C(=O)NCc2ccc(S(N)(=O)=O)cc2)c1 [Example 196, 2-(3-Cyano-phenoxy)-N-(4-sulfamoyl-benzyl)-nicotinamide]
28 | 128 to 130 | Cc1cc(CNC(=O)c2cccnc2Oc2cccc([N+](=O)[O-])c2)cc(C)c1O [Example 108, N-(4-Hydroxy-3,5-dimethyl-benzyl)-2-(3-nitro-phenoxy)-nicotinamide]
29 | 79 to 81 | O=C(CCc1ccc(OC(F)(F)F)cc1)c1cccnc1Oc1ccc(F)cc1 [Example 253, 1-[2-(4-Fluoro-phenoxy)-pyridin-3-yl]-3-(4-trifluoromethoxy-phenyl)-propan-1-one]
30 | 92 to 93 | O=C(COc1ccccc1Cl)c1cccnc1Oc1ccc(F)cc1 [Example 266, 2-(2-Chloro-phenoxy)-1-[2-(4-fluoro-phenoxy)-pyridin-3-yl]-ethanone]
31 | 104 to 106 | CC(=O)c1cccc(Oc2ncccc2C(=O)NCc2ccc([C@@H](C)O)cc2)c1 [Example 307, (R)-(+)-2-(3-Acetyl-phenoxy)-N-(4-(1-hydroxy-ethyl)-benzyl)-nicotinamide]
32 | 118 to 119 | O=C(NCC(O)c1ccccc1)c1cccnc1Oc1cccc(Cl)c1 (centres unmarked) [Example 133, 2-(3-Chloro-phenoxy)-N-(2-hydroxy-2-phenyl-ethyl)-nicotinamide]
33 | 88 to 90 | CC(O)c1ccc(CNC(=O)c2cccnc2Oc2cccnc2)s1 (single isomer, unassigned; (+)) [Example 205, (+)-N-[5-(1-Hydroxy-ethyl)-thiophen-2-ylmethyl]-2-(pyridin-3-yloxy)-nicotinamide]
34 | 133 to 135 | CC(=O)c1cc(Cl)cc(Oc2ncccc2C(=O)NC[C@H]2CC[C@H](C(C)(C)O)CC2)c1 [Example 308, 2-(3-Acetyl-5-chloro-phenoxy)-N-(trans-4-(1-hydroxy-1-methyl-ethyl)-cyclohexylmethyl)-nicotinamide]
35 | 157 to 159 | CC(C)(O)c1ccc(CNC(=O)c2cccnc2Oc2ccc(F)c(C#N)c2)c(F)c1 [Example 99, 2-(3-Cyano-4-fluoro-phenoxy)-N-[2-fluoro4-(1-hydroxy-1-methyl-ethyl)-benzyl]-nicotinamide]
36 | 155 to 157 | CC(=O)Nc1cccc(Oc2ncccc2C(=O)NCc2ccc(C(C)(C)O)cc2)c1 [Example 126, 2(3-Acetylamino-phenoxy)-N-[4-(1-hydroxy-1-methyl-ethyl)-benzyl]-nicotinamide]
37 | 99.5 to 101.5 | CN(C)c1ccc(CNC(=O)c2cccnc2Oc2ccc(F)cc2)cc1 [Example 247, N-[[4-(Dimethylamino)phenyl]methyl]-2-(4-fluorophenoxy)-3-pyridinecarboxamide]
38 | 145 to 147 | N#Cc1cccc(Oc2ncccc2C(=O)NCc2ccc(Cl)s2)c1 [Example 111, N-(5-Chloro-thiophen-2-ylmethyl)-2-(3-cyano-phenoxy)-nicotinamide]
39 | 122 to 124 | CC(C)(O)c1ccc(CC(=O)Nc2cccnc2Oc2cccnc2)cc1 [Example 211, 2-[4-(1-Hydroxy-1-methyl-ethyl)-phenyl]-N-[2-(pyridin-3-yloxy)-pyridin-3-yl]-acetamide]
40 | 180 to 182 | COc1ccccc1NC(=O)Nc1cccc(Oc2ncccc2C(=O)NCc2ccccc2Cl)c1 [Example 138, N-(2-Chloro-benzyl)-2-(3-[3-(2-methoxy-phenyl)-ureido]-phenoxy}-nicotinamide]
41 | 95 to 97 | CC(=O)c1ccc(Oc2ncccc2C(=O)NCc2ccc(C(C)(C)O)cc2)cc1 [Example 236, 2-(4-Acetyl-phenoxy)-N-[4-(1-hydroxy-1-methyl-ethyl)-benzyl]-nicotinamide]
42 | 162 to 164 | CC(=O)c1cccc(Oc2ncccc2C(=O)NCc2ccc(S(N)(=O)=O)cc2)c1 [Example 224, 2-(3-Acetyl-phenoxy)-N-(4-sulfamoyl-benzyl)-nicotinamide]
43 | 148 to 150 | CC(=O)c1cccc(Oc2ncccc2C(=O)NCc2ccncc2)c1 [Example 220, 2-(3-Acetyl-phenoxy)-N-pyridin-4-ylmethyl-nicotinamide]
44 | 78 to 80 | CC(C)(O)C1CCC(CNC(=O)c2cccnc2Oc2ccc(F)cc2)CC1 (centres unmarked) [Example 245, 2-(4-Fluoro-phenoxy)-N-[4-(1-hydroxy-1-methyl-ethyl)-cyclohexylmethyl]-nicotinamide]
